Activity calls are given as the source filed them. No cut-off for these calls is given here.
How the values were obtained:
MIA PaCa-2 [1] = test: Antiproliferative activity against human MIAPaCa2 cells; format: functional, cell-based
PK9 [2] = test: Antiproliferative activity against human PK9 cells; format: functional, cell-based
NCI-H460 = test: Growth inhibition of human NCI-H460 cells after 72 hrs; format: functional, cell-based; details: NCI-H460, 72 h
ACHN = test: Growth inhibition of human ACHN cells after 72 hrs; format: functional, cell-based
HeLa = test: Growth inhibition of human HeLa cells after 72 hrs; format: functional, cell-based
Jurkat = test: Growth inhibition of human Jurkat cells after 72 hrs; format: functional, cell-based
BXPC-3 [3] = test: Growth inhibition of human BxPC3 cells after 72 hrs by XTT assay; format: functional, cell-based; details: BXPC-3, 72 h
PANC-1 [4] = test: Growth inhibition of human PANC1 cells after 72 hrs by XTT assay; format: functional, cell-based; details: PANC-1, 72 h
PANC-1 [5] = test: Induction of apoptosis in human PANC1 cells assessed as accumulation at sub-G0/G1 phase at 20 uM after 24 hrs by propidium iodide staining based flow cytometry (reference value: 0.6 to 0.7%); format: functional
PANC-1 [6] = test: Induction of apoptosis in human PANC1 cells assessed as accumulation at sub-G0/G1 phase at 20 uM after 48 hrs by propidium iodide staining based flow cytometry (reference value: 0.2 to 2.9%); format: functional
PANC-1 [7] = test: Induction of apoptosis in human PANC1 cells assessed as accumulation at sub-G0/G1 phase at 20 uM after 72 hrs by propidium iodide staining based flow cytometry (reference value: 1.6 to 3.2%); format: functional
PANC-1 [8] = test: Induction of apoptosis in human PANC1 cells assessed as accumulation at sub-G0/G1 phase at 10 uM after 24 hrs by propidium iodide staining based flow cytometry (reference value: 0.6 to 0.7%); format: functional
PANC-1 [9] = test: Induction of apoptosis in human PANC1 cells assessed as accumulation at sub-G0/G1 phase at 10 uM after 48 hrs by propidium iodide staining based flow cytometry (reference value: 0.2 to 2.9%); format: functional
PANC-1 [10] = test: Induction of apoptosis in human PANC1 cells assessed as accumulation at sub-G0/G1 phase at 10 uM after 72 hrs by propidium iodide staining based flow cytometry (reference value: 1.6 to 3.2%); format: functional
[11] = Induction of apoptosis in HPNE cells at 5 to 40 uM after 24 to 72 hrs by Annexin V/7-AAD staining based flow cytometry; format: cell-based; details: human
Fibroblast = test: Induction of apoptosis in human primary fibroblasts at 5 to 40 uM after 24 to 72 hrs by Annexin V/7-AAD staining based flow cytometry; format: cell-based
PK9 [12] = test: Induction of apoptosis in human PK9 cells at 5 to 40 uM after 24 to 72 hrs by Annexin V/7-AAD staining based flow cytometry; format: functional, cell-based
MIA PaCa-2 [13] = test: Induction of apoptosis in human MIAPaCa2 cells assessed as live cells at 20 uM after 24 hrs by Annexin V-FITC/propidium iodide staining based flow cytometry (reference value: 86.79%); format: functional
MIA PaCa-2 [14] = test: Induction of apoptosis in human MIAPaCa2 cells assessed as early apoptotic cells at 20 uM after 24 hrs by Annexin V-FITC/propidium iodide staining based flow cytometry (reference value: 5.16%); format: functional
MIA PaCa-2 [15] = test: Induction of apoptosis in human MIAPaCa2 cells assessed as late apoptotic cells at 20 uM after 24 hrs by Annexin V-FITC/propidium iodide staining based flow cytometry (reference value: 7.4%); format: functional
MIA PaCa-2 [16] = test: Induction of apoptosis in human MIAPaCa2 cells assessed as necrotic cells at 20 uM after 24 hrs by Annexin V-FITC/propidium iodide staining based flow cytometry (reference value: 0.63%); format: functional
MIA PaCa-2 [17] = test: Induction of apoptosis in human MIAPaCa2 cells assessed as live cells at 20 uM after 48 hrs by Annexin V-FITC/propidium iodide staining based flow cytometry (reference value: 86.79%); format: functional
MIA PaCa-2 [18] = test: Induction of apoptosis in human MIAPaCa2 cells assessed as early apoptotic cells at 20 uM after 48 hrs by Annexin V-FITC/propidium iodide staining based flow cytometry (reference value: 5.16%); format: functional
MIA PaCa-2 [19] = test: Induction of apoptosis in human MIAPaCa2 cells assessed as late apoptotic cells at 20 uM after 48 hrs by Annexin V-FITC/propidium iodide staining based flow cytometry (reference value: 7.4%); format: functional
MIA PaCa-2 [20] = test: Induction of apoptosis in human MIAPaCa2 cells assessed as necrotic cells at 20 uM after 48 hrs by Annexin V-FITC/propidium iodide staining based flow cytometry (reference value: 0.63%); format: functional
MIA PaCa-2 [21] = test: Induction of apoptosis in human MIAPaCa2 cells assessed as increase in cleaved PARP protein expression at 20 uM after 24 to 48 hrs by Western blot analysis; format: functional, cell-based
BXPC-3 [22] = test: Induction of apoptosis in human BxPC3 cells assessed as increase in cleaved PARP protein expression at 20 uM after 24 to 48 hrs by Western blot analysis; format: functional, cell-based
MIA PaCa-2 [23] = test: Induction of autophagy in human MIAPaCa2 cells assessed as increase in LC3-2 protein expression at 20 uM after 24 to 48 hrs by Western blot analysis; format: functional, cell-based
BXPC-3 [24] = test: Induction of autophagy in human BxPC3 cells assessed as increase in LC3-2 protein expression at 20 uM after 24 to 48 hrs by Western blot analysis; format: functional, cell-based

IC50 (MIA PaCa-2 [1]) [µM]	IC50 (BXPC-3 [3]) [µM]	IC50 (PANC-1 [4]) [µM]	SMILES	IC50 (PK9 [2]) [µM]	Activity (PANC-1 [5]) [%]	Activity (PANC-1 [6]) [%]	Activity (PANC-1 [7]) [%]	Activity (PANC-1 [8]) [%]	Activity (PANC-1 [9]) [%]	Activity (PANC-1 [10]) [%]	Activity [11]	Activity (Fibroblast)	Activity (PK9 [12])	further results
14 to 45	–	–	CCCCCCCCCCCCc1cn(CC[C@H]2NC[C@@H](O)[C@H]2O)nn1	14 to 45	–	–	–	–	–	–	–	–	–	–
–	–	–	CCCCCCCC/C=C\CCCCCCCCOC[C@H]1NC[C@H](O)[C@@H]1O	–	–	–	–	–	–	–	–	–	–	IC50 (NCI-H460): 9 µM; IC50 (ACHN): 3 µM; IC50 (HeLa): 8 µM; IC50 (Jurkat): 7 µM
14 to 45	–	–	CCCCCCCCCCCCc1cn(C[C@@H]2N[C@@H](C)[C@@H](O)[C@H]2O)nn1	14 to 45	–	–	–	–	–	–	–	–	–	–
–	4.3	5	CCCCCCCC/C=C\CCCCCCCCOC[C@@H]1CCCN1C(=O)[C@@H]1CCCN1.Cl	–	4.4	21.3	74.9	2.6	12.3	56.3	Toxic	Toxic	Active	Activity (MIA PaCa-2 [13]): 83.47%; Activity (MIA PaCa-2 [14]): 6.78%; Activity (MIA PaCa-2 [15]): 8.64%; Activity (MIA PaCa-2 [16]): 1.1%; Activity (MIA PaCa-2 [17]): 81.02%; Activity (MIA PaCa-2 [18]): 10.86%; Activity (MIA PaCa-2 [19]): 7.94%; Activity (MIA PaCa-2 [20]): 0.16%; Activity (MIA PaCa-2 [21]): inactive; Activity (BXPC-3 [22]): inactive; Activity (MIA PaCa-2 [23]): inactive; Activity (BXPC-3 [24]): inactive
14 to 45	–	–	CCCCCCCCCCCCc1cn(C[C@H]2NC[C@H](O)[C@@H]2O)nn1	14 to 45	–	–	–	–	–	–	–	–	–	–
–	5.3	7.7	CCCCCCCC/C=C\CCCCCCCCOC[C@@H]1CCCN1C(=O)CN.Cl	–	2.2	7.9	50.3	2.4	13.7	52.9	Toxic	Toxic	Active	–
